# Assay results: publication PMC4841536, “Characterization of the Anti-HCV Activities of the New Cyclophilin Inhibitor STG-175” (PLoS ONE, 2016)
# Where two headings read alike, the source gives them in different places.
# Legend:
# [1] = system: HCV GT3a subgenomic replicon S52/SG-Feo (AI); experiment: Luciferase reporter replicon antiviral assay, GT3a; assay type: cell-based; conditions: Hepatitis C virus
# Experimental: The anti-HCV activity of STG-175 was conducted using a panel of luciferase reporter replicon cell lines including GT1a, GT1b, GT2a, GT3a and GT4a as we described previously. The GT1a subgenomic renilla luciferase reporter replicon H77 RLucP (7) was supplied by Dr. Delaney. The GT1b subgenomic firefly luciferase reporter replicon pFK-I389/NS3-3’ [29] was supplied by Dr. Bartenschlager. The GT1B subgenomic NS3, NS5A and NS5B mutants were created via homologous recombination using the In-Fusion HD Cloning kit (Clontech) as we described previously. The GT2a genomic luciferase reporter replicon Luc-Neo-JFH-1 was generated as previously. The plasmid pFK-Luc-JFH1 was supplied from Drs. […] The CellTiter-Fluor™ Cell Viability Assay is a non-lytic fluorescence assay, which measures the number of live cells. […] Luciferase activity was determined using the Luciferase Assay System (Promega) in a Berthold luminometer. […] Viable cells continuously convert resazurin to resorufin, increasing the overall fluorescence and color of the media surrounding cells.
# Fig 2 Anti-HCV activities of STG-175 among GTs. […] Luciferase activity was determined using the Luciferase Assay System in a Berthold luminometer. […] Data are expressed as mean of relative light units and calculated EC50s are presented. […]
# [2] = system: wild-type Con1 (GT1b) replicon colonies; experiment: Degree of resistance of replicon colonies, wild-type; assay type: cell-based; conditions: Hepatitis C virus, read-out: EC50 of STG-175, WT colonies
# Experimental: Huh-7 cells expressing subgenomic Con1 (GT1b) replicon were incubated with STG-175 and 100 μg/ml of G418 in 10 cm CellBIND™ plates (Corning). Cells were split every 3 days at 1:6 and G418 concentration was increased sequentially to 200 and 300 μg/mL. […] At this point, medium was changed every 3–4 days until emergence of resistant clones. Clones were individually transferred to 24-well CellBIND using cloning disks. […] Each clone was split in 2 identical plates and was separately maintained under 0.5 or 1.0 μM STG-175 and 100 μg/mL of G418. Once the colonies were established, G418 concentration was increased to 300 μg/mL. […] Briefly, total RNA was prepared using the RNeasy Plus Mini Kit as per manufacturer’s recommendation. […] The amplicons were gel purified, quantitated and sequenced using primers located internally in NS5A or NS5B reading to the 5’ and 3’ ends. Sequences were assembled and analyzed using the ClustalW algorithm within the MacVector program. […]
# Fig 3 Replicon clearance, replication rebound and resistance analyses. […] At each passage, samples of cells were collected, RNA extracted and analyzed by RT-PCR for HCV RNA levels. […] At each passage, sample of cells were collected, RNA extracted and analyzed by RT-PCR for HCV RNA levels. […] Data are expressed as number of HCV RNA copies per cell. […] Data are expressed as mean of relative light units and calculated EC50s are presented. […]
structure (smiles),measurement,setting,value
CC=CCC(C)C(O)C1C(=O)NC(CC)C(=O)N(C)C(CSCCCCO)C(=O)N(C)C(CC(C)(C)O)C(=O)NC(C(C)C)C(=O)N(C)C(CC(C)C)C(=O)NC(C)C(=O)NC(C)C(=O)N(C)C(CC(C)C)C(=O)N(C)C(CC(C)C)C(=O)N(C)C(C(C)C)C(=O)N1C (stereo not drawn) [STG-175],EC50,"[1]; 72 h, read-out: EC50 GT3a",0.0389 µM
same,EC50,[1]; read-out: EC50 GT3a (Fig 2D),0.0389 µM
same,EC50,[2],0.0157 µM
